Measured values: patent US20220054477A1, “INDUCTION OF SUSTAINED LOCAL INFLAMMATION” (Ascendis Pharma Oncology Division A/S, priority 2019, published 2022)
Marks after values point to notes of the source that are not given here.

Experiments:
[1] = tested on: Ly-6C+ antigen presenting cells; assay: Flow cytometry of tumor draining lymph nodes: frequency of Ly-6C+ antigen presenting cells of non-T cells (Example 15); type: in vivo, BALB/C mice; conditions: 7 days after randomization
Protocol: (§1) Hydrogels were administered as suspension in PTP buffer. Some cohorts were further treated with 20 μg human IL-2 (Peprotech, Rocky Hill, N.J.), intraperitoneally (I.P.), twice a day for 5 days. Mice were sacrificed 7 days after randomization (D0). Following sacrifice, tumor draining lymph nodes were isolated from both flanks and were dissociated mechanically to generate a single cell suspension at a cell concentration of 1×10^6 cells per sample. Cell suspensions were centrifuged at 300 g for 5 minutes. Supernatants were discarded and cells were resuspended in FACS buffer with 1 μg/ml Fc-Block and incubated at 4° C. for 10 minutes in the dark. Surface marker antibody mixtures (antibody concentration: 10 μg/mL) in FACS buffer were added to each sample and samples were incubated in the dark at 4° C. for 30 minutes. Cells were centrifuged at 300 g for 5 minutes and supernatants were discarded. Cells were washed and then resuspended with FACS buffer before cytometer collection.
(§2) After collection, FACS data was analyzed using FlowJo Version 10.6.1. Compensation was digitally adjusted using single antibody-stained beads. Samples with less than 90% viability, as determined by LiveDead cell staining, were excluded from the analysis. […]

[2] = parameters: species or system WISTAR rats; conditions: rat, in vivo, sc, 25 ug
Excerpt: Hydrogels were suspended (ca. 6% wt/v) PBST buffer at pH 7.4. […] Blood samples were withdrawn and used for plasma generation over the course of 28 d. […] Plasma concentration profiles were generated and analyzed with Phoenix WinNonlin software (Certara, Princeton, N.J., USA).

[3] = tested on: Ifna4; assay: PBMC gene expression (qPCR, 6 hours post-treatment): Ifna4 (Example 17); type: in vivo, BALB/C mice
Protocol: (§3) Hydrogels were administered as suspensions in PTP buffer. […] Tumors were excised, weighed and snap frozen.
(§4) For PBMC isolations, approximately 600 μl of whole blood was collected via cardiac puncture. The collected whole blood from each individual mouse was diluted with a 1:1 ratio of pre-warmed PBS supplemented with 2% Fetal Bovine Serum (FBS). Then an equal volume of Histopaque-1083 was added to a new sterile 15 mL conical tube, where the diluted whole blood was layered over the Histopaque-1083. The mixture was then centrifuged at 400 g for 30 minutes. […]
(§5) Lysates from untreated control samples and 6 hour treated samples were thawed and RNA was isolated using the RNeasy Mini Kit (QIAGEN) following manufacturer's recommendations. […] RNA concentrations were measured using a NanoDrop (ThermoFisher) and then adjusted to […] with RNase-free water. RNA quality was assessed using a NanoDrop (ThermoFisher). […] 200 ng of cDNA was used for quantitative PCR using the RT^2 SYBR Green ROX qPCR Master mix (2×) kit (QIAGEN) following manufacturer's recommendations. […]
(§6) Cycle thresholds (CT) were collected using a 384-well platform ABI-7900H real-time qPCR system (Applied Biosystems). […] 2^ΔΔCT values were calculated with the following formula: […]
(§7) For each gene, 3 technical replicates were analyzed per biological replicate. Undetermined technical replicate CT values were recorded as zero ΔCT values. […]

[4] = tested on: CT26 tumor cells; assay: In vivo anti-tumor efficacy, CT26 tumor volumes (Example 11); parameters: species or system BALB/C mice; conditions: single intratumoral dose
Protocol: Mice were subcutaneously implanted with 3×10^5 CT26 tumor cells in the left and right flanks. […] Hydrogels were administered as suspensions in PBST buffer. Following treatment initiation, anti-tumor efficacy was assessed by determination of tumor volumes at various time points from tumor size measurements with a caliper. Tumor volumes were calculated according to the formula: […]
where L is the length of the tumor and W the width (both in mm). Mice were removed from the study once tumors were greater than 1500 mm^3.

[5] = tested on: IFNγ; assay: In vivo cytokine induction, plasma cytokine levels: IFNγ (Example 12); parameters: species or system BALB/C mice; conditions: single intratumoral dose, values at or below LLOQ set to 0.01
Protocol: (§8) Mice were subcutaneously implanted with 3×10^5 CT26 tumor cells in the left and right flanks. […] Hydrogels were administered as suspensions in PBST buffer. K2 EDTA-preserved blood samples were collected by retro-orbital bleed at various time points following drug administration and plasma was isolated following centrifugation at 2000×g for 5 minutes at 4° C. and frozen. Plasma samples were stored at −80° C. Plasma was thawed and undiluted samples were assessed for cytokine levels using the 36-Plex Mouse ProcartaPlex™ Cytokine Panel 1A (ThermoFisher Scientific) following manufacturer's recommendations. Cytokines were measured on the Bio-Plex 200 (BioRad) following kit instructions. For sample values below or at the lower limit of quantitation (LLOQ) of the assay, a value of 0.01 pg/mL was instead used in determining mean cytokine concentrations.

[6] = tested on: IL-6; assay: In vivo cytokine induction, plasma cytokine levels: IL-6 (Example 12); parameters: species or system BALB/C mice; conditions: single intratumoral dose
Protocol: as §8

[7] = tested on: Ly-6C+ CD8+ T cells; assay: Flow cytometry of tumor draining lymph nodes: frequency of Ly-6C+ T cells of CD8+ T cells (Example 15); type: in vivo, BALB/C mice; conditions: 7 days after randomization
Protocol: as §1, §2

[8] = tested on: Ccl3; assay: PBMC gene expression (qPCR, 6 hours post-treatment): Ccl3 (Example 17); type: in vivo, BALB/C mice
Protocol: as §3, §4, §5, §6, §7

[9] = tested on: Ly-6C+ MHCII+ antigen presenting cells; assay: Flow cytometry of tumor draining lymph nodes: frequency of IA-IE (MHCII)+ antigen presenting cells of Ly-6C+ antigen presenting cells (Example 15); type: in vivo, BALB/C mice; conditions: 7 days after randomization
Protocol: as §1, §2

[10] = tested on: Tnf; assay: PBMC gene expression (qPCR, 6 hours post-treatment): Tnf (Example 17); type: in vivo, BALB/C mice
Protocol: as §3, §4, §5, §6, §7

[11] = tested on: Il1b; assay: PBMC gene expression (qPCR, 6 hours post-treatment): Il1b (Example 17); type: in vivo, BALB/C mice
Protocol: as §3, §4, §5, §6, §7

[12] = tested on: Ccl2; assay: PBMC gene expression (qPCR, 6 hours post-treatment): Ccl2 (Example 17); type: in vivo, BALB/C mice
Protocol: as §3, §4, §5, §6, §7

[13] = tested on: Ccl4; assay: PBMC gene expression (qPCR, 6 hours post-treatment): Ccl4 (Example 17); type: in vivo, BALB/C mice
Protocol: as §3, §4, §5, §6, §7

[14] = tested on: Cxcl2; assay: PBMC gene expression (qPCR, 6 hours post-treatment): Cxcl2 (Example 17); type: in vivo, BALB/C mice
Protocol: as §3, §4, §5, §6, §7

[15] = tested on: TNFα; assay: In vivo cytokine induction, plasma cytokine levels: TNFα (Example 12); parameters: species or system BALB/C mice; conditions: single intratumoral dose
Protocol: as §8

[16] = tested on: Cxcl1; assay: PBMC gene expression (qPCR, 6 hours post-treatment): Cxcl1 (Example 17); type: in vivo, BALB/C mice
Protocol: as §3, §4, §5, §6, §7

[17] = tested on: Cxcl10; assay: PBMC gene expression (qPCR, 6 hours post-treatment): Cxcl10 (Example 17); type: in vivo, BALB/C mice
Protocol: as §3, §4, §5, §6, §7

[18] = tested on: CCL2/MCP-1; assay: In vivo cytokine induction, plasma cytokine levels: CCL2/MCP-1 (Example 12); parameters: species or system BALB/C mice; conditions: single intratumoral dose
Protocol: as §8

[19] = tested on: CD4+ T cells; assay: Flow cytometry of tumor draining lymph nodes: frequency of CD4+ T cells of CD3+ T cells (Example 15); type: in vivo, BALB/C mice; conditions: 7 days after randomization
Protocol: as §1, §2

[20] = tested on: Il10; assay: PBMC gene expression (qPCR, 6 hours post-treatment): Il10 (Example 17); type: in vivo, BALB/C mice
Protocol: as §3, §4, §5, §6, §7

[21] = tested on: Il1a; assay: PBMC gene expression (qPCR, 6 hours post-treatment): Il1a (Example 17); type: in vivo, BALB/C mice
Protocol: as §3, §4, §5, §6, §7

[22] = tested on: CD8+ T cells; assay: Flow cytometry of tumor draining lymph nodes: frequency of CD8+ T cells of CD3+ T cells (Example 15); type: in vivo, BALB/C mice; conditions: 7 days after randomization
Protocol: as §1, §2

- AUCPred-∞ [2]: 65.4 ng·h/mL
- Cmax [2]: 23.1 ng/mL
- t1/2 (biphasic), first value [2]: 1.5 h
- t1/2 (biphasic), second value [2]: 10 h
Substance: Resiquimod [Compound 4]
- Frequency of Ly-6C+ antigen presenting cells of non-T cells, Mean ([1]; injected right flank tumor): 2.5%
- Frequency of Ly-6C+ antigen presenting cells of non-T cells, Mean ([1]; uninjected left flank tumor): 7.8%
- Ifna4 Mean (2^ΔΔCT) [3]: 2.97
- Ifna4 Fold change (4/13i) ([3]; ratio of 4 to 13i): 20.48
- Absolute tumor volume, Mean ([4]; day 0 post-treatment): 88.82 mm^3
- Absolute tumor volume, Mean ([4]; day 2 post-treatment): 108.44 mm^3
- Absolute tumor volume, Mean ([4]; day 4 post-treatment): 128.42 mm^3
- Absolute tumor volume, Mean ([4]; day 7 post-treatment): 316.07 mm^3
- Absolute tumor volume, Mean ([4]; day 9 post-treatment): 549.72 mm^3
- Absolute tumor volume, Mean ([4]; day 11 post-treatment): 957.90 mm^3
- Absolute tumor volume, Mean ([4]; day 14 post-treatment): 1220.96 mm^3
- IFNγ plasma level, Mean ([5]; 1 h post-treatment): 4.04 pg/mL
- IFNγ plasma level, Mean ([5]; 3 h post-treatment): 15.49†, ‡ pg/mL
- IFNγ plasma level, Mean ([5]; 6 h post-treatment): 40.72†, ‡ pg/mL
- IFNγ plasma level, Mean ([5]; 10 h post-treatment): 28.19†, ‡ pg/mL
- IFNγ plasma level, Mean ([5]; 24 h post-treatment): 2.38 pg/mL
- IL-6 plasma level, Mean ([6]; 1 h post-treatment): 3618.87†, ‡ pg/mL
- IL-6 plasma level, Mean ([6]; 3 h post-treatment): 1739.75†, ‡ pg/mL
- IL-6 plasma level, Mean ([6]; 6 h post-treatment): 88.59 pg/mL
- IL-6 plasma level, Mean ([6]; 10 h post-treatment): 154.51 pg/mL
- IL-6 plasma level, Mean ([6]; 24 h post-treatment): 44.71 pg/mL
- Frequency of Ly-6C+ T cells of CD8+ T cells, Mean ([7]; injected right flank tumor): 53.7%
- Frequency of Ly-6C+ T cells of CD8+ T cells, Mean ([7]; uninjected left flank tumor): 48%
- Ccl3 Mean (2^ΔΔCT) [8]: 1.43†
- Ccl3 Fold change (4/13i) ([8]; ratio of 4 to 13i): 1.64
- Frequency of IA-IE (MHCII)+ antigen presenting cells of Ly-6C+ antigen presenting cells, Mean ([9]; injected right flank tumor): 69.63%
- Frequency of IA-IE (MHCII)+ antigen presenting cells of Ly-6C+ antigen presenting cells, Mean ([9]; uninjected left flank tumor): 35.05%
- Tnf Mean (2^ΔΔCT) [10]: 4.64
- Tnf Fold change (4/13i) ([10]; ratio of 4 to 13i): 4.45
- Il1b Mean (2^ΔΔCT) [11]: 3.71†
- Il1b Fold change (4/13i) ([11]; ratio of 4 to 13i): 7.92
- Ccl2 Mean (2^ΔΔCT) [12]: 6.75
- Ccl2 Fold change (4/13i) ([12]; ratio of 4 to 13i): 2.82
- Ccl4 Mean (2^ΔΔCT) [13]: 1.31
- Ccl4 Fold change (4/13i) ([13]; ratio of 4 to 13i): 1.74
- Cxcl2 Mean (2^ΔΔCT) [14]: 35.37
- Cxcl2 Fold change (4/13i) ([14]; ratio of 4 to 13i): 6.43
- TNFα plasma level, Mean ([15]; 1 h post-treatment): 830.84 pg/mL
- TNFα plasma level, Mean ([15]; 3 h post-treatment): 136.25 pg/mL
- TNFα plasma level, Mean ([15]; 6 h post-treatment): 35.49 pg/mL
- TNFα plasma level, Mean ([15]; 10 h post-treatment): 43.32 pg/mL
- TNFα plasma level, Mean ([15]; 24 h post-treatment): 9.74 pg/mL
- Cxcl1 Mean (2^ΔΔCT) [16]: 7.41
- Cxcl1 Fold change (4/13i) ([16]; ratio of 4 to 13i): 11.54
- Cxl10 Mean (2^ΔΔCT) [17]: 45.38
- Cxl10 Fold change (4/13i) ([17]; ratio of 4 to 13i): 21.41
- CCL2/MCP-1 plasma level, Mean ([18]; 1 h post-treatment): 357.83 pg/mL
- CCL2/MCP-1 plasma level, Mean ([18]; 3 h post-treatment): 4230.35†, ‡ pg/mL
- CCL2/MCP-1 plasma level, Mean ([18]; 6 h post-treatment): 1039.17†, ‡ pg/mL
- CCL2/MCP-1 plasma level, Mean ([18]; 10 h post-treatment): 847.07† pg/mL
- CCL2/MCP-1 plasma level, Mean ([18]; 24 h post-treatment): 92.58 pg/mL
- Frequency of CD4+ T cells of CD3+ T cells, Mean ([19]; injected right flank tumor): 69.1%
- Frequency of CD4+ T cells of CD3+ T cells, Mean ([19]; uninjected left flank tumor): 69.25%
- Il10 Mean (2^ΔΔCT) [20]: 2.77†
- Il10 Fold change (4/13i) ([20]; ratio of 4 to 13i): 2.29
- Il1a Mean (2^ΔΔCT) [21]: 0.41
- Il1a Fold change (4/13i) ([21]; ratio of 4 to 13i): 1.78
- Frequency of CD8+ T cells of CD3+ T cells, Mean ([22]; injected right flank tumor): 29.23%
- Frequency of CD8+ T cells of CD3+ T cells, Mean ([22]; uninjected left flank tumor): 29%
